Here are results for 1 molecule from ChEMBL document CHEMBL3526145, “Metabolism, excretion, and pharmacokinetics of ((3,3-difluoropyrrolidin-1-yl)((2S,4S)-4-(4-(pyrimidin-2-yl)piperazin-1-yl)pyrrolidin-2-yl)methanone, a dipeptidyl peptidase inhibitor, in rat, dog and human” (Drug Metab Dispos, 2012).

Series [1] can be described thus: Drug excretion in Sprague-Dawley rat urine at 5 mg/kg, po administered as single dose. In kind it is ADME, organism-based. Particulars: read-out: Drug excretion. Also noted: dose 5 mg/kg, route oral.
The nature of series [2]: Drug excretion in Sprague-Dawley rat feces at 5 mg/kg, po administered as single dose. In kind it is ADME, organism-based. Also noted: dose 5 mg/kg, route oral. The conditions noted are these: faeces, read-out: Drug excretion.
A short description of series [3]: Drug recovery in Sprague-Dawley rat at 5 mg/kg, po administered as single dose. In kind it is ADME, organism-based. Also noted: dose 5 mg/kg, route oral. The conditions noted are these: in vivo, read-out: Drug recovery.
Series [4] can be described thus: Drug excretion in beagle dog urine at 5 mg/kg, po administered as single dose. In kind it is ADME, organism-based, Canis lupus familiaris. More on the design: dose 5 mg/kg, route oral. Particulars: read-out: Drug excretion.
Series [5] is described as follows: Drug excretion in beagle dog feces at 5 mg/kg, po administered as single dose. The format is ADME, organism-based, Canis lupus familiaris. Also noted: dose 5 mg/kg, route oral. Particulars: faeces, read-out: Drug excretion.
Series [6] can be described thus: Drug recovery in beagle dog at 5 mg/kg, po administered as single dose. The conditions noted are these: in vivo, read-out: Drug recovery. Also noted: dose 5 mg/kg, route oral. In kind it is ADME, organism-based, Canis lupus familiaris.
Series [7] in a line: Drug excretion in human urine at […], po administered as single dose. In kind it is ADME, organism-based. Also noted: route oral. The conditions noted are these: read-out: Drug excretion.
Series [8] is described as follows: Drug excretion in human feces at […], po administered as single dose. In kind it is ADME, organism-based. Also noted: route oral. Particulars: faeces, read-out: Drug excretion.
The nature of series [9]: Drug recovery in human at […], po administered as single dose. The format is ADME, organism-based. The conditions noted are these: in vivo, read-out: Drug recovery. Also noted: route oral.
In series [10] the test system is Homo sapiens. The series can be described thus: Cmax in human at […], po administered as single dose. In kind it is ADME, organism-based. More on the design: route oral. Particulars: in vivo.
Series [11] has as its system Homo sapiens. Put plainly: AUC (0 to 168 hrs) in human at […], po administered as single dose. In kind it is ADME, organism-based, Plasma. More on the design: time < 168 hr, route oral. Particulars: in vivo.
The subject of series [12] is Homo sapiens. The series can be described thus: AUC (0 to infinity) in human at […], po administered as single dose. In kind it is ADME, organism-based, Plasma. More on the design: time infinity, route oral. Particulars: in vivo.
The nature of series [13]: Drug metabolism in bile of bile duct-cannulated male Sprague-Dawley rat assessed as PF-00734200 level at 5 mg/kg, po administered as single dose by LC-MS/MS method. The conditions noted are these: in vivo. More on the design: dose 5 mg/kg, route oral. The format is ADME, organism-based.
Series [14] can be described thus: Drug metabolism in bile of bile duct-cannulated female Sprague-Dawley rat assessed as PF-00734200 level at 5 mg/kg, po administered as single dose by LC-MS/MS method. In kind it is ADME, organism-based. Also noted: dose 5 mg/kg, route oral. The conditions noted are these: in vivo.
The nature of series [15]: Drug recovery in bile of bile duct-cannulated Sprague-Dawley rat at 5 mg/kg, po administered as single dose by LC-MS/MS method. The format is ADME, organism-based. More on the design: dose 5 mg/kg, route oral. The conditions noted are these: read-out: Drug recovery.

For `O=C([C@@H]1C[C@H](N2CCN([14c]3ncccn3)CC2)CN1)N1CCC(F)(F)C1`, the dose excreted in series [1] was 30.8%; in series [2], 66%; in series [3], 97.1%; in series [4], 66.7%; in [5], 16.8%; in series [6], 92.2%. The dose excreted in [7] was 76.8%; in series [8], 10.4%; in series [9], 87.2%; in [15] it was 62.1%. The molecule also yielded a Cmax in the series with Homo sapiens [10] of 274 ng.Eq/ml. For the same molecule, the results for the AUC in the series with Homo sapiens [11] and in the series with Homo sapiens [12] were 2490 ng.Eq.hr/ml and 2850 ng.Eq.hr/ml, respectively. Moreover, the Drug metabolism entry in series [13] and in series [14] was “metabolite_not_detected” each time.
